From paper PMC12598805, “Crystal Structure–Activity Relationship of Some MeO Phenylacrylonitriles: Dual Antimicrobial–Cytotoxic Effects and in Silico Perspectives” (ChemistryOpen, 2025) come the findings set out here.

In series [1] the test system is Pseudomonas aeruginosa (ATCC 27853). As to the kind of experiment: Agar diffusion, zone of inhibition. Type of series: cell-based. The conditions noted are these: P.aeruginosa, compounds at 50 mg mL^−1; for zone of inhibition at 50 mg/mL: Pseudomonas aeruginosa, ATCC27853. The source says: The antibacterial and antifungal activities were reported utilizing the method described by the Clinical & Laboratory Standards Institute.^[ [31], [32] ^] Agar diffusion method was used to determine the antimicrobial activity of the synthesized substances. The media used were mueller hinton agar (MHA) for bacteria and sabouraud‐dextrose agar (SDA) for fungi (Merck), as recommended by the manufacturer.
The synthesized compounds were initially investigated for their antimicrobial activity to elucidate the potential therapeutic utility against various pathogenic microbes using the agar plate diffusion method. The compounds were tested at a concentration of 50 mg mL^−1, and the antibiotics (ampicillin, kanamycin, and amphotericin B) were used at 5 mg mL^−1. […] K.pneumoniae and B.cereus were resistant to ampicillin, while they were susceptible to kanamycin with inhibition values of 30 and 26 mm, respectively. No antimicrobial activity of the compounds was observed against E.faecalis, S.typhimurium, K.pneumoniae, and for the fungus compared to Amphotericin B (20 mm). […]
Pseudomonas aeruginosa (ATCC 27853) […]
ATCC: American Type Culture Collection; NRRL: Northern Regional Research Laboratory The compounds 2(a-c) obtained could only be completely solubilised with dimethyl sulphoxide (DMSO) and the highest possible stock solutions of 50 mg.mL-1 were prepared. To these wells 50 μl of the previously prepared substances were transferred using sterile micropipette tips. For comparison, Ampicillin and kanamycin antibiotics for bacteria and Amphotericin B antibiotics for fungus were used as positive controls and DMSO was used as negative control. The prepared petri plates were kept at +4°C for about 1 hour and then the bacterial cultures were incubated at 37°C for 18-24 hours and mould cultures at 27-30°C for 48-72 hours. The zones formed were measured millimetrically with callipers. The experiments were performed with three repetitions. […]
A general note: Agar diffusion results depend on both activity and mobility in agar.

Series [2] is described as follows: Cytotoxicity on healthy cells, CCK8 cell viability. Type of series: cell-based, mouse. The conditions noted are these: mouse, L929 mouse fibroblast cells, read-out: Cytotoxic activity IC50; for IC50 at 24 h: L929, 24 h; for IC50 at 48 h: L929, 48 h. The source says: (§1) We investigated the cytotoxic effects of acrylonitrile derivatives 2(a–c) on human lung carcinoma (A549, CCL‐185) cells purchased from American Culture Collection and human breast carcinoma (MCF‐7) cells purchased from Republic of Turkey Ministry of Agriculture and Forestry Şap Institute, (HUKUK, 00092502), In addition, mouse fibroblast cells (L929, CCL‐1) purchased from American Culture Collection were used to observe the effects of the compounds on healthy cells. In 25 T Flask, A549 cells were grown in dulbecco's modified eagle's medium, MCF‐7, and L929 cells were grown in eagle's minimum essential medium (EMEM), 10% fetal bovine serum and 1% Penicillin‐Streptomycin at 37 °C in a 5% CO2 and 100% humidified incubator. Cell proliferation was checked every day. Cells were taken into the experiment when the cell density reached 70% to 80%. (See Supporting Information for experimental preparation of biological studies).
(§2) The compounds 2a, 2b, and 2c were dissolved in 99.8% Dimethyl sulfoxide (DMSO) respectively, as
(§3) 10 mM main stock. To prepare the doses of acrylonitrile compounds used in the experiment to be
(§4) applied to the cells, five different concentrations of 31.25; 62.5; 125; 250 and 500 μM were prepared
(§5) by diluting the main stock solutions (10 mM) with the medium selected according to the cells. 5-
(§6) Fluorouracil (5-FU) was selected as a positive control in the study. After the 5-FU main stock solution
(§7) was dissolved with DMSO to be 10 mM, the concentrations to be used were diluted with the selected
(§8) media and made ready for the experimental plan. The concentrations used for 5-FU were prepared in
(§9) the same doses used for acrylonitrile derivatives. For the negative control group, groups containing
(§10) only media and no substance were used. Prepared acrylonitrile compounds and 5-FU concentrations
(§11) were added to the wells in three replicates for each dose, and their effects on cell viability at 24 and 48
(§12) Trypan blue solution (Gibco, 1525061) was used to distinguish between living and dead cells in the
(§13) study. Trypan blue passes uncontrollably through the membrane of dead cells that have lost their cell
(§14) membrane integrity and stains the cell blue. Living cells, on the other hand, are not stained because
(§15) Live cell counts were performed using trypan blue using a
(§16) cell counter (Logos Luna II).
(§17) In order to detach the cells adhering to the flasks from the bottom, 500 μL of 0.25% Trypsin-EDTA
(§18) (Gibco, 15400054) solution was added and treated for five minutes.
(§19) detach from the bottom under an inverted microscope (Zeiss Primovert, Germany), medium containing
(§20) 10% FBS was added. After centrifugation at 300 g for 5 minutes and discarding the medium, 1 mL of
(§21) medium was added and the cells were seeded into 96-well culture dishes as 1x10^4 cells in 100 μL per
(§22) Cell Counting Kit 8 (CCK8; Medchem, 146436) was used to determine cell viability. After adding 20 μL
(§23) of CCK8 solution to each well in the dark, 96-well culture dishes were wrapped with aluminum foil and
(§24) kept in a CO2 incubator at 37 °C for 2 hr. Then, it was automatically read with a microplate reader
(§25) (Chromate) at 450 and 630 nm wavelengths. The following formula was used to determine cell
(§26) % Viability = (Sample Well−Blank) (Negative Control−Blank)×100 (1)
(§27) The half-maximal inhibitory concentration (IC50) was calculated as 50% cell death causing dose
(§28) compared to the control group. All data are given as the mean percent fraction of control ± SEM.
(§29) Statistical analysis was done by one-way analysis of variance (ANOVA), followed by Tukey’s multiple
(§30) comparison tests. IBM SPSS Statistics 22 was used to utilize statistical analysis. […]

Series [3] concerns mouse fibroblast cells (L929, CCL‐1). Kind of series: Cytotoxicity on healthy cells, CCK8 cell viability. Type of series: cell-based.
Excerpt: as §1, §2, §3, §4, §5, §6, §7, §8, §9, §10, §11, §12, §13, §14, §15, §16, §17, §18, §19, §20, §21, §22, §23, §24, §25, §26, §27, §28, §29, §30

For `COc1ccc(C=C(C#N)c2ccccc2)cc1` [2a, 3‐(4‐methoxyphenyl)‐2‐phenylacrylonitrile], the zone of inhibition in series [1] was determined as 13 ± 1.41 mm. In addition, the zone of inhibition at 50 mg/mL in series [1] is 13 mm. The IC50 at 24 h in series [2] stood at 351 µM. Further, in series [2], the IC50 at 48 h is under 31.2 µM. Also, the “decrease in cell viability” value is 13% in series [3] (L929, 24 h, 31.25 μM); 19% in series [3] (L929, 24 h, 62.5 μM); 16% in series [3] (L929, 24 h, 125 μM); 35% in series [3] (L929, 24 h, 250 μM); 73% in series [3] (L929, 24 h, 500 μM); 52% in series [3] (L929, 48 h, 31.25 μM). Moreover, the “decrease in cell viability” value in series [3] (L929, 48 h, 62.5 μM) stood at 53%; in series [3] (L929, 48 h, 125 μM), 55%; in series [3] (L929, 48 h, 250 μM), 54%; in series [3] (L929, 48 h, 500 μM), 87%.

Consider `COc1ccc(/C=C(\C#N)c2ccc(F)cc2)cc1` [2b], for which the zone of inhibition in series [1] was found to be 12 ± 0.71 mm. Besides, in series [1], the zone of inhibition at 50 mg/mL came to 12 mm. Further, the half-inhibitory concentration (IC50) at 24 h in series [2] was under 250 µM. For the same compound, in series [2], the IC50 at 48 h is under 31.2 µM. In addition, the “decrease in cell viability” value is on record as 45% in series [3] (L929, 24 h, 31.25 μM); 44% in series [3] (L929, 24 h, 62.5 μM); 43% in series [3] (L929, 24 h, 125 μM); 50% in series [3] (L929, 24 h, 250 μM); 75% in series [3] (L929, 24 h, 500 μM); 52% in series [3] (L929, 48 h, 31.25 μM). Moreover, the “decrease in cell viability” value stood at 54% in series [3] (L929, 48 h, 62.5 μM); 53% in series [3] (L929, 48 h, 125 μM); 53% in series [3] (L929, 48 h, 250 μM); 80% in series [3] (L929, 48 h, 500 μM). Besides, the IC50 in series [3] (L929, 24 h, read-out: Cytotoxic activity IC50) was 250 µM.

For `COc1ccc(/C=C(\C#N)c2cc(C(F)(F)F)cc(C(F)(F)F)c2)cc1` [2c], the zone of inhibition in series [1] was determined as 15 ± 0.71 mm. Also, the zone of inhibition at 50 mg/mL in series [1] was determined as 15 mm. Further, in series [2], the IC50 at 24 h was found to be 410 µM. The IC50 at 48 h in series [2] is 391 µM. Besides, the “decrease in cell viability” value in series [3] (L929, 24 h, 31.25 μM) is given as 8%; in series [3] (L929, 24 h, 62.5 μM), 10%; in series [3] (L929, 24 h, 125 μM) it was 19%; in series [3] (L929, 24 h, 250 μM), 12%; in series [3] (L929, 24 h, 500 μM), 71%; in series [3] (L929, 48 h, 31.25 μM) it was 14%. In addition, the “decrease in cell viability” value is recorded as 16% in series [3] (L929, 48 h, 62.5 μM); 20% in series [3] (L929, 48 h, 125 μM); 24% in series [3] (L929, 48 h, 250 μM); 80% in series [3] (L929, 48 h, 500 μM).

One may read the zone of inhibition as the extent of the growth-free halo in a diffusion test. As usually defined, the IC50 is the concentration at which inhibition is half-maximal.
